Read-outs that look alike come from different tables or passages of the source. Each block holds one compound with its values, some of them ahead of it. Non-standard residues stand in square brackets, D forms with d. Residues, ends and D or L forms follow the SMILES beside them. No end group written: not given here. Met(O) = CS(=O)CC[C@H](N)C(=O)O
Columns and labels:
ACE (from rabbit lung) [1] = target: T1, ACE (from rabbit lung) (Oryctolagus cuniculus, UniProt P12822); assay: ACE inhibition activity assay (HHL substrate, hippuric acid by RP-HPLC); assay type: biochemical; settings: 0.1 U/mL ACE, 5 mM HHL, sodium borate buffer pH 8.3 with 0.3 M NaCl, 37 °C, 60 min; seven peptide concentrations; triplicate, mean ± SD
T1 construct: ACE (from rabbit lung); purchased Sigma-Aldrich Co. (St. Louis, MO, USA); host or cells: rabbit lung tissue
T1 sequence (P12822 34-1310): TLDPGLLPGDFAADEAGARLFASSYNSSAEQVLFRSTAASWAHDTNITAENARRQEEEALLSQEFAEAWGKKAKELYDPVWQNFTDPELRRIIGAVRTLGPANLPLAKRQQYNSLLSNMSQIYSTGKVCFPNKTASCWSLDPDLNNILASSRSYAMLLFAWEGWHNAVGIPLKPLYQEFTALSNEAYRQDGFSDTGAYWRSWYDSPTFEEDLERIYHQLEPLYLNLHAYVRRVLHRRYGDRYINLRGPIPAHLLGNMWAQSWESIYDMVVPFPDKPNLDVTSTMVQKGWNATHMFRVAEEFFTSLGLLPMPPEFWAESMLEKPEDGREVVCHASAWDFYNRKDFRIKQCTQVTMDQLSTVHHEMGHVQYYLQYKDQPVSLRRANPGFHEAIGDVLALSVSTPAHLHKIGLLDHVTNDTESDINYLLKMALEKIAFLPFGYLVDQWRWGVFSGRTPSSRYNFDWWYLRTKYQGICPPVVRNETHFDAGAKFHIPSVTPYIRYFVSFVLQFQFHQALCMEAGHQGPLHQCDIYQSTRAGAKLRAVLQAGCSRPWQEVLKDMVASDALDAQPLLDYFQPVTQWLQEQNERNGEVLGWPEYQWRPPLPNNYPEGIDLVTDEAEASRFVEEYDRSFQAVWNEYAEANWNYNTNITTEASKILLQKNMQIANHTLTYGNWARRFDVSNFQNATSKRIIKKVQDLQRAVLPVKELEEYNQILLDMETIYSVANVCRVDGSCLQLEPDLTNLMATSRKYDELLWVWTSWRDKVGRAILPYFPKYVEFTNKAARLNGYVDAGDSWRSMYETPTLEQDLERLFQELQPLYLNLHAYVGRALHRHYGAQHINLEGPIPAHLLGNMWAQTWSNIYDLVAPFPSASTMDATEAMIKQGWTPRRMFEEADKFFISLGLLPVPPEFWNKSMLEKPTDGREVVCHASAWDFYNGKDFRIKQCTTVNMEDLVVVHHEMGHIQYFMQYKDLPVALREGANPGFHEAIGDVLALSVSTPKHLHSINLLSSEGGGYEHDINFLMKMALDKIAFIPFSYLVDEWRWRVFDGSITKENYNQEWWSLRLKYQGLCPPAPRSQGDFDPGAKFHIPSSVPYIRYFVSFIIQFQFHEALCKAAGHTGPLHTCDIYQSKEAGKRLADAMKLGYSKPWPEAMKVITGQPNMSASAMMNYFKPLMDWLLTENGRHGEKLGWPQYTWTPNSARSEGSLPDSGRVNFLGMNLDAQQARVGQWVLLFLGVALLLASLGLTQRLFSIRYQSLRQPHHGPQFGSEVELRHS
Procedure: (§1) ACE (from rabbit lung), hippuryl-histidyl-leucine (HHL), high-performance liquid chromatography (HPLC)-grade acetonitrile (ACN), trifluoroaceticacid (TFA) and porcine pancreatin (8× USP) were purchased from Sigma-Aldrich Co. (St. Louis, MO, USA). Trypsin (EC […], ≥250. N.F.U/mg solid), pepsin (EC 3.4.23.1, ≥250 U/mg solid), and captopril (>99% purity) were obtained from Solarbio (Beijing, China). All other chemical reagents were of analytical grade.
(§2) ACE inhibition activity was assayed according to Cushman and Cheung, with some modification. ACE was dissolved in sodium borate buffer (pH 8.3, containing 0.3 M sodium chloride) to 0.1 U/mL for the assay. Synthetic peptides were dissolved in distilled water to seven concentration levels. Then, 20 μL of a certain concentration of peptide was mixed with 10 μL ACE solution. The mixture was incubated at 37 °C for 5 min, and then 50 μL of 5 mM HHL (sodium borate buffer pH 8.3, containing 0.3 M sodium chloride) was added to the above mixture to start the reaction. […] The absorbance was detected at 228 nm. […] The activity of ACE inhibition was calculated as followed:ACE inhibitory activity (%) = (Acontrol − Ainhibitor)/Acontrol × 100 where Ainhibitor is the relative area of the hippuric acid (HA) peak obtained from the reaction of ACE and HHL with inhibitor. […]

[2] = Observed water solubility of the peptide; assay type: physicochemical; settings: when the concentration was lower than 10 mg/mL; solubility gradually decreased above 10 mg/mL
Source text: The properties and stabilities of peptides are prerequisites for the preparation of "functional peptides". According to the information in the Innovagen server, FQIN [M(O)] CILR has poor water solubility. […] The hydrophobicity of FQIN [M(O)] CILR is related to the presence of hydrophobic amino acids, such as Phe, Leu, Ile, and Met. The hydrophobicity of FQIN [M(O)] CILR may facilitate the binding of peptides to the hydrophobic active center of ACE, in turn, produce better inhibitory activity.

ACE (from rabbit lung) [3] = target: T1, ACE (from rabbit lung); assay: Stability of peptides against ACE; assay type: in vitro ADME; settings: 0.1 mg/mL peptide with 0.1 U/mL ACE, 37 °C, 24 h; read-out ACE inhibitory activity; mean ± SD, n = 3
Source text: as §1
The stability of peptides against ACE was assayed according to Salampessy. J and Fujita. H [48, 49]. 30 μL of peptides (0.1 mg/mL) reacted with 30 μL 0.1 U/mL ACE solution at 37 °C for 24 h. The ACE was then inactivated through boiling the solution for 10 min. Then, 20 μL of peptides were used to detect ACE inhibitory activity in the above method.

ACE (from rabbit lung) [4] = target: T1, ACE (from rabbit lung); assay: Determination of inhibitory pattern (Lineweaver-Burk plots); assay type: biochemical; settings: X-axis intercept of the plot of Lineweaver-Burk slopes against peptide concentration
Procedure: as §1, §2

[5] = test system: spontaneously hypertensive rats (SHRs); assay: Antihypertensive effect on SHRs (tail-cuff SBP and DBP); assay type: in vivo, rat; settings: positive control, single oral dose 10 mg/kg body weight
Procedure: Spontaneously hypertensive rats (SHRs) (male, 10-week-old, 250–300 g body weight, specific, pathogen-free) were bought from Vital River Laboratory Animal Co., Ltd. (Beijing, China). Animals used in this study were maintained in accordance with the guidelines of the Institutional Research Council’s Guide for the Care and Use of Laboratory Animals. SHRs were housed under 12 h day/night cycle at 22 ± 2 °C and fed with tap water and a standard diet ad libitum. The SHRs were randomly separated into a positive group, control group, and two experiment groups. There were six SHRs in each group. Before the formal start of the test, SHRs had to adapt to measuring the environment in advance. Once the tail systolic blood pressure (SBP) rates were above 180 mmHg, the gavage administration could start.
Normal saline was the solvent to dissolve peptides and control reagent. Captopril (99% purity, Solarbio Technology Co., Ltd., Beijing, China) was the positive group. The same volume of normal saline was the control group. Tail-cuff method was performed for systolic blood pressure (SBP) and diastolic blood pressure (DBP) measurements with a non-invasive CODA device (Kent Scientific Co., Torrington, CT, USA). The blood pressure was measured in 0, 1, 2, 4, 6, 8 h after gavage administration. Measurements were repeated three times at each time point.

ACE = test system: ACE; parameters: method as in 6 sources, ref 31 = [31]; doi:10.1007/s00217-017-2886-2; 31. Cao D. Lv X. Xu X. Yu H. Sun X. Xu N. Purification and identification of a novel ACE inhibitory peptide from marine alga Gracilariopsis lemaneiformis protein hydrolysate Eur. Food Res. Technol. 20 ||| ref 32, 33 = [32]; doi:10.1016/j.procbio.2017.08.009; 32. Guo M. Chen X. Wu Y. Zhang L. Huang W. Yuan Y. Fang M. Xie J. Wei D. Angiotensin I-converting enzyme inhibitory peptides from Sipuncula ( Phascolosoma esculenta ): Purification, identification, mo || [33]; doi:10.1080/00021369.1987.10868415; 33. Maruyama S. Mitachi H. Awaya J. Kurono M. Tomizuka N. Suzuki H. Angiotensin I-Converting Enzyme Inhibitory Activity of the C-Terminal Hexapeptide of αs1-Casein Agric. Biol. Chem. Tokyo 1987 51 255 ||| ref 7 = [7]; 7. Fujita H. Yokoyama K. Yoshikawa M. Classification and antihypertensive activity of angiotensin I-converting enzyme inhibitory peptides derived from food proteins J. Food Sci. 2000 65 564 569 ||| ref 43 = [43]; PMID 24866326; doi:10.1021/jf501368a; 43. Duan X. Wu F. Li M. Yang N. Wu C. Jin Y. Yang J. Jin Z. Xu X. Naturally occurring angiotensin I-Converting enzyme inhibitory peptide from a fertilized egg and its inhibitory mechanism J. Agric. Fo ||| ref 44 = [44]; doi:10.1016/j.foodres.2012.11.002; 44. Liu X. Zhang M. Jia A. Zhang Y. Zhu H. Zhang C. Sun Z. Liu C. Purification and characterization of angiotensin I converting enzyme inhibitory peptides from jellyfish Rhopilema esculentum Food Res. ||| ...; settings: cited from earlier work; for Inhibition pattern on ACE: peptides isolated from food stuffs, ref 37 (IFL), 38 (AVKVL), 39 (VELWP)
[6] = cited from earlier work
Source text: Antihypertensive activity of peptides were further evaluated using spontaneously hypertensive rats (SHRs). […] Overall, drugs can exert better antihypertensive effects than hydrolysates and antihypertensive peptides derived from foods. […] Both FQIN [M(O)] CILR and TGAPCR decreased the SBP of SHRs. FQIN [M(O)] CILR and TGAPCR reduced the SBP of SHRs by 34 mmHg and 28 mmHg to the maximum extent, re ...

[7] = peptide isolated from dried bonito, before pre-incubation with ACE, read-out: IC50 (ACE inhibition)
[8] = peptides isolated from jellyfish, read-out: IC50 (ACE inhibition)
[9] = reported C-terminal arginine ACE inhibitory peptides, read-out: IC50 (ACE inhibition)

IC50 (ACE (from rabbit lung) [1]): 9.64 ± 0.36 µM
water solubility found in the authors' study [2]: good water solubility
Ki (ACE (from rabbit lung) [4]): 710 ± 40 µM
Compound: CC[C@H](C)[C@H](NC(=O)[C@H](CS)NC(=O)[C@H](CC[S+](C)[O-])NC(=O)[C@H](CC(N)=O)NC(=O)[C@@H](NC(=O)[C@H](CCC(N)=O)NC(=O)[C@@H](N)Cc1ccccc1)[C@@H](C)CC)C(=O)N[C@@H](CC(C)C)C(=O)N[C@@H](CCCNC(=N)N)C(=O)O (stereo partly drawn) [FQIN [M(O)] CILR] (H-FQIN[Met(O)]CILR-OH)
Stability against ACE hydrolysis (ACE inhibitory activity after incubation with ACE) (ACE (from rabbit lung) [3]): stable ACE inhibitors but not substrates of ACE

Compound: C[C@H](CS)C(=O)N1CCC[C@H]1C(=O)O [captopril]
Antihypertensive effect on SHRs (in words) [5]: maximal antihypertensive effect

Compound: AVKVL
Inhibition pattern on ACE (ACE): noncompetitive inhibition

Compound: FFGRCVSP
IC50 (ACE; [7]): 0.4 µM
IC50 (ACE; peptide isolated from dried bonito, hydrolyzed by ACE to fragments, read-out: IC50 after hydrolysis by ACE): 4.6 µM

Compound: GDIGY
IC50 (ACE; [8]): 32.6 µM
Reduction of SBP [6]: 20.67 mmHg

Compound: GNGSGYVSR
IC50 (ACE; [9]): 29 µM

Compound: HLFGPPGKKDPV
IC50 (ACE; peptide separated from fertilized eggs, read-out: IC50 (ACE inhibition)): 125 µM
Greatest SBP drop ([6]; oral dose of 10 mg/kg): 30 mmHg

Compound: LKPNM
IC50 after the pre-incubation with ACE, as fraction of the IC50 before (ACE; hydrolyzed into LKP and NM): 1/3
IC50 (ACE; [7]): 2.4 µM

Compound: QPGPT
IC50 (ACE; [8]): 80.7 µM
Reduction of SBP [6]: 13.75 mmHg

Compound: QVEY
IC50 (ACE; peptide from trypsin hydrolyzate of G. lemaneiformis, read-out: IC50 (ACE inhibition)): 474 µM

IC50 (ACE (from rabbit lung) [1]): 23.9 ± 0.82 µM
Ki (ACE (from rabbit lung) [4]): 860 ± 60 µM
Compound: TGAPCR [TGAPCR]
Stability against ACE hydrolysis (ACE inhibitory activity after incubation with ACE) (ACE (from rabbit lung) [3]): stable ACE inhibitors but not substrates of ACE

Compound: VELWP
Inhibition pattern on ACE (ACE): noncompetitive inhibition

Compound: YASGR
IC50 (ACE; [9]): 184 µM

Compound: YIPIQYVLSR
IC50 (ACE; [9]): 132 µM
